# Patent US9758459B2, “Allosteric modulators of factor XIa as anticoagulant agents” (VIRGINIA COMMONWEALTH UNIVERSITY, priority 2012, dated 2017)
# Several values for one entry are separate records, joined by “and”; a condition that tells them apart may be missing. Identical values can stand only once.
# Experiments:
# Format in all cases: biochemical
# Lys539Ala FXIa-CD = biological target: T1, Lys539Ala FXIa-CD (Homo sapiens, UniProt P03951, C500S/K557A); experiment: 16S inhibition of Lys539Ala FXIa-CD; conditions: not shown
# T1 construct: eliminating the bond allows the catalytic domain of FXIa (FXIa-CD) to separate from the heavy chain; made in house; host or cells: HEK-293
# T1 sequence (P03951 388-625 C500S/K557A): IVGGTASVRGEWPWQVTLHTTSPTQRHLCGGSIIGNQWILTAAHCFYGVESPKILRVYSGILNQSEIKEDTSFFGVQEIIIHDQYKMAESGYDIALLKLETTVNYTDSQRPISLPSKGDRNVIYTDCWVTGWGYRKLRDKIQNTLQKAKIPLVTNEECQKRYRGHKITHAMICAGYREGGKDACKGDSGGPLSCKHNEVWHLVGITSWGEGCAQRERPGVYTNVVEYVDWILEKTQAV
# Description: (§1) Mutagenesis and Expression of Recombinant Factor XIa. Mutations in the FXIa 170 helix were introduced into a modified human FXI cDNA (FXI-Ser-362,482), which contains serine substitutions for Cys362 and Cys482 (FXI numbering), as described earlier in several papers.^7,8 A disulfide bond between these residues connects the heavy chains and catalytic domains after cleavage at the activation site, and eliminating the bond allows the catalytic domain of FXIa (FXIa-CD) to separate from the heavy chain. The basic residues of the FXIa 170-helix, Lys529, Arg530, Arg532, Lys535 and Lys539 in the FXI numbering system (correspond to residues 170, 171, 173, 175 and 179 in the chymotrypsinogen numbering system), were changed to alanine individually and as a group using a Quick Change kit (Stratagene, La Jolla, Calif.). cDNAs in expression vector pJVCMV were used to transfect HEK-293 cells as described. Stably expressing clones were expanded in 175 cm^2 flasks, and serum free media (Cellgro Complete, Mediatech, Herndon, Va.) was collected every 48 hours, supplemented with benzamidine (5 mM) and stored at −80° C. pending purification. Recombinant FXI was purified from conditioned media on an anti-fXI IgG 1G5.12 affinity column. […] Protein containing fractions were pooled, concentrated and dialyzed, and protein concentrations were determined by dye-binding assay (Bio-Rad). […]
# human factor XIa [1] = biological target: T2, human factor XIa (Homo sapiens, UniProt P03951); experiment: Direct inhibition of factor XIa, chromogenic substrate S-2366 hydrolysis assay; conditions: FXIa-WT, 16S plus 30 μM polybrene
# T2 construct: purchased Haematologic Technologies (Essex Junction, Vt.); host or cells: human plasma
# T2 sequence (P03951 19-387 limits assumed): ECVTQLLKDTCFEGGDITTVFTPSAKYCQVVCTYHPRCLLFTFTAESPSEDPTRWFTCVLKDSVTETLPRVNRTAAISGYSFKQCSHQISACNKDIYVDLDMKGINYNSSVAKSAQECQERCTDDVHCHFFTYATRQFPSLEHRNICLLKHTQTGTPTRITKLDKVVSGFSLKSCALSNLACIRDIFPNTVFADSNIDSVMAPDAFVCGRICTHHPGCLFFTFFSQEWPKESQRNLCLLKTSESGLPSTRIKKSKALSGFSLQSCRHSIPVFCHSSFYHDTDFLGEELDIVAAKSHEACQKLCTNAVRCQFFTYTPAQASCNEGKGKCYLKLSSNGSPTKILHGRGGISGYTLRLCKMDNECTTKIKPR
# T2 sequence (P03951 388-625 limits assumed): as the sequence (P03951 388-625 C500S/K557A) above, with S113C, A170K counted along it
# human plasma [2] = experiment: Prothrombin time (PT) plasma clotting assay; conditions: concentration doubling clotting time
# Procedure: (§2) Plasma clotting assays, prothrombin and activated partial thromboplastin time (PT and APTT, respectively), are routinely used to assess the anticoagulation potential of new enzyme inhibitors in an in vitro setting. Whereas PT measures the effect of an inhibitor on the extrinsic pathway of coagulation, APTT measures the effect on the intrinsic pathway.
# (§3) Prothrombin Time (PT) and Activated Partial Thromboplastin Time (APTT) were assessed as described in Example 1.
# [3] = biological target: T3, Arg530Ala FXIa-CD single mutant (Homo sapiens, UniProt P03951, C500S/R548A); experiment: 16S inhibition of Arg530Ala FXIa-CD, S2366 hydrolysis; conditions: Arg530 replaced by Ala
# T3 construct: eliminating the bond allows the catalytic domain of FXIa (FXIa-CD) to separate from the heavy chain; made in house; host or cells: HEK-293
# T3 sequence (P03951 388-625 C500S/R548A): as the sequence (P03951 388-625 C500S/K557A) above, with R161A, A170K counted along it
# Description: (§4) FIG. 15. […] Solid lines represent sigmoidal dose-response fits.
# as §1, with “purification.” for “purification. Recombinant FXI was purified from conditioned media on an anti-fXI IgG 1G5.12 affinity column.”
# [4] = biological target: T4, recombinant wild type FXIa catalytic domain (FXIa-CD) (Homo sapiens, UniProt P03951, C500S); experiment: 16S inhibition of recombinant FXIa catalytic domain, S2366 hydrolysis
# T4 construct: eliminating the bond allows the catalytic domain of FXIa (FXIa-CD) to separate from the heavy chain; made in house; host or cells: HEK-293
# T4 sequence (P03951 388-625 C500S): as the sequence (P03951 388-625 C500S/K557A) above, with A170K counted along it
# Description: as §4
# (§5) Mutagenesis and Expression of Recombinant Factor XIa. Mutations in the FXIa 170 helix were introduced into a modified human FXI cDNA (FXI-Ser-362,482), which contains serine substitutions for Cys362 and Cys482 (FXI numbering), as described earlier in several papers.^7,8 A disulfide bond between these residues connects the heavy chains and catalytic domains after cleavage at the activation site, and eliminating the bond allows the catalytic domain of FXIa (FXIa-CD) to separate from the heavy chain. The basic residues of the FXIa 170-helix, Lys529, Arg530, Arg532, Lys535 and Lys539 in the FXI numbering system (correspond to residues 170, 171, 173, 175 and 179 in the chymotrypsinogen numbering system), were changed to alanine individually and as a group using a Quick Change kit (Stratagene, La Jolla, Calif.). cDNAs in expression vector pJVCMV were used to transfect HEK-293 cells as described. Stably expressing clones were expanded in 175 cm^2 flasks, and serum free media (Cellgro Complete, Mediatech, Herndon, Va.) was collected every 48 hours, supplemented with benzamidine (5 mM) and stored at −80° C. pending purification. Recombinant FXI was purified from conditioned media on an anti-fXI IgG 1G5.12 affinity column. After loading, the column was washed with 25 mM Tris-HCl, pH 7.4, 100 mM NaCl, and eluted with 2M NaSCN in the same buffer. Protein containing fractions were pooled, concentrated and dialyzed, and protein concentrations were determined by dye-binding assay (Bio-Rad). Recombinant wild-type FXI or FXI-CD (˜200-300 μg/ml) was activated with 5 μg/ml FXIIa at 37° C. Completion of activation was confirmed by SDS-PAGE. Activated preparations were passed over a 1G5.12 column to separate the protease from FXIIa. In the case of proteins prepared in FXI-Ser-362,482, the catalytic domains bind to the column, while the heavy chain passes through.
# (§6) Heparin binds to FXIa in two sites—in the A3 domain (Lys252, Lys253, and Lys255) and in the catalytic domain (Lys529, Arg530, Arg532, Lys535, and Lys539). […]
# [5] = biological target: T5, Lys529Ala,Arg530Ala,Arg532Ala FXIa-CD triple mutant (Homo sapiens, UniProt P03951, C500S/K547A/R548A/R550A); experiment: 16S inhibition of triple mutant FXIa-CD, S2366 hydrolysis
# T5 construct: eliminating the bond allows the catalytic domain of FXIa (FXIa-CD) to separate from the heavy chain; made in house; host or cells: HEK-293
# T5 sequence (P03951 388-625 C500S/K547A/R548A/R550A): as the sequence (P03951 388-625 C500S/K557A) above, with K160A, R161A, R163A, A170K counted along it
# Description: as §4, §5, §6
# Lys535Ala FXIa-CD = biological target: T6, Lys535Ala FXIa-CD (Homo sapiens, UniProt P03951, C500S/K553A); experiment: 16S inhibition of Lys535Ala FXIa-CD; conditions: not shown
# T6 construct: eliminating the bond allows the catalytic domain of FXIa (FXIa-CD) to separate from the heavy chain; made in house; host or cells: HEK-293
# T6 sequence (P03951 388-625 C500S/K553A): as the sequence (P03951 388-625 C500S/K557A) above, with K166A, A170K counted along it
# Description: as §1
# human plasma [6] = experiment: Activated partial thromboplastin time (APTT) plasma clotting assay; conditions: human plasma, concentration doubling clotting time
# Procedure: as §2, §3
# human factor XIa [7] = biological target: T2, human factor XIa; experiment: Direct inhibition of factor XIa, chromogenic substrate S-2366 hydrolysis assay
# Procedure: Solvent A consisted of 25 mM n-hexylamine in water containing 0.1% (v/v) formic acid, while solvent B consisted of 25 mM n-hexylamine in acetonitrile-water mixture (3:1 v/v) containing 0.1% (v/v) formic acid. […] The sample was first monitored for absorbance in the range of 190-400 nm and then directly introduced into the mass spectrometer. ESI-MS detection was performed in positive ion mode for which the capillary voltage was 4 kV, cone voltage was 20 V, desolvation temperature was 350° C. and nitrogen gas flow was maintained at 650 L/hr. Mass scans were collected in the range of 1000-2048 amu within 0.25 s and several of these added to enhanced signal-to-noise ratio. Direct Inhibition of Factor XIa. […] After 10 min incubation, 5 μL factor XIa substrate (345 μM) was rapidly added and the residual FXIa activity was measured from the initial rate of increase in absorbance at 405 nm. […] Relative residual FXIa activity at each concentration of the inhibitor was calculated from the ratio of FXIa activity in the presence and absence of the inhibitor. Logistic equation 1 was used to fit the dose-dependence of residual protease activity to obtain the potency (IC50) and efficacy (ΔY) of inhibition.
# Direct Inhibition of Factor XIa by Sulfated QAOs was performed as described in Example 1.
# The ability of the sulfated inositol analogs to inhibit factor XIa was studied using the in vitro assay described in Example 1. In this assay, the factor XIa enzyme is anticipated to hydrolyze a particular peptide linkage in the corresponding peptide substrate releasing p-nitroaniline which absorbs at wavelength of 405 nm giving a line slope corresponds to the enzyme activity. The line slope of no inhibitor status is considered as a reference slope and it depends on the relative concentrations of factor XIa enzyme and its substrate. Factor XIa enzyme concentration was decided to get appropriate reference slope of approximately 25-35, whereas the substrate concentration was set to be larger than its affinity to factor XIa enzyme under equilibrium condition, Km. In presence of potential factor XIa inhibitor, the enzyme capacity to hydrolyze the designated peptide linkage in the substrate gets diminished or completely abolished depending on the inhibitor concentration and efficacy. […] Such decreased slope reflects a drop in the catalytic enzyme activity of factor XIa.
smiles,measurement,setting,value
O=c1c2ccccc2nc(-c2ccc(OS(=O)(=O)O)cc2)n1CCCCCCn1cc(Cn2c(-c3ccc(OS(=O)(=O)O)cc3)nc3ccccc3c2=O)nn1 [Inhibitor 16S],change in IC50 from wild-type FXIa-CD,Lys539Ala FXIa-CD,no change in IC50
same,inhibition level after addition of polybrene,human factor XIa [1],9.2±1.0%
same,2 × PT,human plasma [2],>2000 µM
same,increase in IC50 versus FXIa-CD,[3],2 fold
same,inhibition level after addition of polybrene,"[4]; FXIa-CD, 16S plus 30 μM polybrene",13.1±0.7%
same,proteolytic activity in the presence of 16S,"[4]; FXIa-CD, no polybrene",~6%
same,inhibition of FXIa-CD compared with wild-type enzyme,[4]; not shown,as potently as the wild-type enzyme
same,proteolytic activity in the presence of 16S,"[5]; FXIa-CD triple mutations, no polybrene",~5%
same,inhibition level after addition of polybrene,"[5]; FXIa-CD with triple mutations, 16S plus 30 μM polybrene",7.1±1.2%
same,reduction of potency versus FXIa-CD,"[5]; Lys529, Arg530 and Arg532 replaced by Ala",approximately 5 fold
same,change in IC50 from wild-type FXIa-CD,Lys535Ala FXIa-CD,no change in IC50
same,2 × APTT,human plasma [6],950 µM
same,proteolytic activity in the presence of 16S,"human factor XIa [7]; full length wild-type FXIa, no polybrene",approximately 4%
same,ΔY % (efficacy),human factor XIa [7]; sulfated QAOs,97 ± 1%
same,IC50,"human factor XIa [7]; sulfated QAOs, pH 7.4, 37° C., read-out: IC50 (converted)",~50 µM and 52 µM
